# In PMC9004346, “Development of small cyclic peptides targeting the CK2α/β interface” (Chemical Communications (Cambridge, England), 2022):
# Read-outs that look alike come from different tables or passages of the source.
substance,measurement,setting,value
CC6RLYGFKCC6,"ring closure, yield after HPLC","crosslinker bond, 27-membered ring, TCEP/K2CO3, CH2I2/NEt3, H2O/THF, 3.7 mM",19%
CC8RLYGFKWC8,"ring closure, yield after HPLC","thioether bond, 27-membered ring, I2, H2O/MeCN, 0.46 mM",25%
GXC1RLYGFKWHXC1GG,"ring closure, yield after HPLC","crosslinker bond, 39-membered ring, 3,5-diethynylbenzoic acid/CuSO4/THPTA/Na ascorbate, tBuOH/H2O 1:1, 0.48 mM",2%
CC7RLYGFKCC7,"ring closure, yield after HPLC","crosslinker bond, 33-membered ring, N-(4,6-divinylpyrimidin-2-yl)-N-methylglycine, phosphate buffer pH 8/DMF, 1.6 mM",17%
JC2RLYGFKXC2,"ring closure, yield after HPLC","triazole bond, 27-membered ring, CuSO4/Na ascorbate/DIEA, H2O, 1.3 mM",19%
CC4RLYGFKCC4,"ring closure, yield after HPLC","crosslinker bond, 29-membered ring, TCEP, dichloroacetone, phosphate buffer pH 8/DMF 1:2, 1.3 mM",8%
JC3RLYGFKXC3,"ring closure, yield after HPLC","triazole bond, 26-membered ring, [Cp*RuCl]4 30 mol%, tBuOH/H2O 1:1, 0.61 mM",3%
